According to PubChem BioAssay AID2060491 (Molecular Pharmacology Branch, DTP, NCI, 2025):
pIC50: −log10 of the molar value.

Tested on: 857933-349-R-J2-PDC complex spheroids, viability
Test: Anticancer human tumor 857933-349-R-J2-PDC patient-derived colon adenocarcinoma cell line growth inhibition [GQUAD]
Conditions: for pIC50: curve of first compound; for viability, T/C: stronger effect = lower value
In short: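 Multi-cell-type spheroids of tumor cells with HUVEC and mesenchymal stem cells, treated with drug combinations. Concentrations descend in half-log steps from near clinical Cmax, or from 10 microM where Cmax is unknown; viability read-out.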

[1] = second compound 0.0316 µM, first compound 0.0316 µM
[2] = second compound 0.0316 µM, first compound 0.1 µM
[3] = second compound 0.0316 µM, first compound 0.316 µM
[4] = second compound 0.0316 µM, first compound 1 µM
[5] = second compound 0.0316 µM, first compound 3.16 µM
[6] = second compound 0.0316 µM, first compound 10 µM
[7] = second compound 0.1 µM, first compound 0.0316 µM
[8] = second compound 0.1 µM, first compound 0.1 µM
[9] = second compound 0.1 µM, first compound 0.316 µM
[10] = second compound 0.1 µM, first compound 1 µM
[11] = second compound 0.1 µM, first compound 3.16 µM
[12] = second compound 0.1 µM, first compound 10 µM
[13] = second compound 0.316 µM, first compound 0.0316 µM
[14] = second compound 0.316 µM, first compound 0.1 µM
[15] = second compound 0.316 µM, first compound 0.316 µM
[16] = second compound 0.316 µM, first compound 1 µM
[17] = second compound 0.316 µM, first compound 3.16 µM
[18] = second compound 0.316 µM, first compound 10 µM
[19] = second compound 1 µM, first compound 0.0316 µM
[20] = second compound 1 µM, first compound 0.1 µM
[21] = second compound 1 µM, first compound 0.316 µM
[22] = second compound 1 µM, first compound 1 µM
[23] = second compound 1 µM, first compound 3.16 µM
[24] = second compound 1 µM, first compound 10 µM
[25] = second compound 3.16 µM, first compound 0.0316 µM
[26] = second compound 3.16 µM, first compound 0.1 µM
[27] = second compound 3.16 µM, first compound 0.316 µM
[28] = second compound 3.16 µM, first compound 1 µM
[29] = second compound 3.16 µM, first compound 3.16 µM
[30] = second compound 3.16 µM, first compound 10 µM
[31] = second compound 10 µM, first compound 0.0316 µM
[32] = second compound 10 µM, first compound 0.1 µM
[33] = second compound 10 µM, first compound 0.316 µM
[34] = second compound 10 µM, first compound 1 µM
[35] = second compound 10 µM, first compound 3.16 µM
[36] = second compound 10 µM, first compound 10 µM
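Note: spheroids exposed to compounds for one week before readout.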
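Throughout, for viability, T/C: percent viability relative to vehicle DMSO wells taken as 100%.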

In the case of CC(C)n1c(=O)n(C)c2cnc3cc(F)c(-c4ccc(OCCCN5CCCCC5)nc4)cc3c21 + Cc1[nH]c2ccc(F)cc2c1-c1nc2c3cccnc3c3ncccc3c2[nH]1, the pIC50 (second compound 0.0316 µM) was < 5.00, the pIC50 (second compound 0.1 µM) was < 5.00 and the pIC50 (second compound 0.316 µM) was < 5.00. For the same compound, the pIC50 (second compound 1 µM) was < 5.00, the pIC50 (second compound 3.16 µM) was < 5.00 and the pIC50 (second compound 10 µM) was < 5.00. For the same compound, the viability, T/C [1] was 100%, the viability, T/C [2] was 102% and the viability, T/C [3] was 107%. For the same compound, the viability, T/C [4] was 102%, the viability, T/C [5] was 107% and the viability, T/C [6] was 84%. It also gave a viability, T/C [7] of 94.8%, a viability, T/C [8] of 115% and a viability, T/C [9] of 98.5%. The viability, T/C [10] was 95.4%, the viability, T/C [11] was 105% and the viability, T/C [12] was 79.9%. The viability, T/C [13] was 102%, the viability, T/C [14] was 101% and the viability, T/C [15] was 102%. The viability, T/C [16] was 107%, the viability, T/C [17] was 110% and the viability, T/C [18] was 83.5%. The viability, T/C [19] was 98.4%, the viability, T/C [20] was 106% and the viability, T/C [21] was 101%. For the same compound, the viability, T/C [22] was 107%, the viability, T/C [23] was 128% and the viability, T/C [24] was 79.3%. The viability, T/C [25] was 105%, the viability, T/C [26] was 103% and the viability, T/C [27] was 115%. The viability, T/C [28] was 98.6%, the viability, T/C [29] was 111% and the viability, T/C [30] was 83.8%. It also gave a viability, T/C [31] of 102%, a viability, T/C [32] of 103% and a viability, T/C [33] of 108%. For the same compound, the viability, T/C [34] was 103%, the viability, T/C [35] was 103% and the viability, T/C [36] was 88.9%.

CC1COCCN1c1cc(C2(O)CC3CCC(C2)O3)c2cnn(-c3ccn[nH]3)c2n1 (stereo unspecified) + Cc1[nH]c2ccc(F)cc2c1-c1nc2c3cccnc3c3ncccc3c2[nH]1 was tested, and the pIC50 (second compound 0.0316 µM) was 6.54, the pIC50 (second compound 0.1 µM) was 6.56 and the pIC50 (second compound 0.316 µM) was 6.36. It also gave a pIC50 (second compound 1 µM) of 6.51, a pIC50 (second compound 3.16 µM) of 6.16 and a pIC50 (second compound 10 µM) of 6.57. The viability, T/C [1] was 76.9%, the viability, T/C [2] was 64.5% and the viability, T/C [3] was 49.6%. The viability, T/C [4] was 41.2%, the viability, T/C [5] was 47.2% and the viability, T/C [6] was 42.5%. It also gave a viability, T/C [7] of 69.5%, a viability, T/C [8] of 61.1% and a viability, T/C [9] of 44.6%. The viability, T/C [10] was 47.3%, the viability, T/C [11] was 50.3% and the viability, T/C [12] was 51.4%. For the same compound, the viability, T/C [13] was 67.8%, the viability, T/C [14] was 65.5% and the viability, T/C [15] was 52.7%. It also gave a viability, T/C [16] of 42.3%, a viability, T/C [17] of 45.8% and a viability, T/C [18] of 42.9%. It also gave a viability, T/C [19] of 58.2%, a viability, T/C [20] of 59.8% and a viability, T/C [21] of 46.5%. It also gave a viability, T/C [22] of 44.6%, a viability, T/C [23] of 46.4% and a viability, T/C [24] of 47.2%. It also gave a viability, T/C [25] of 64.9%, a viability, T/C [26] of 59.6% and a viability, T/C [27] of 52.4%. It also gave a viability, T/C [28] of 46.2%, a viability, T/C [29] of 48.4% and a viability, T/C [30] of 45.5%. It also gave a viability, T/C [31] of 77.4%, a viability, T/C [32] of 61.2% and a viability, T/C [33] of 49%. The viability, T/C [34] was 42.4%, the viability, T/C [35] was 42% and the viability, T/C [36] was 46.7%.

With O=C(c1cc(Cc2n[nH]c(=O)c3ccccc23)ccc1F)N1CCN(C(=O)C2CC2)CC1 + Cc1[nH]c2ccc(F)cc2c1-c1nc2c3cccnc3c3ncccc3c2[nH]1 the pIC50 (second compound 0.0316 µM) was < 5.00, the pIC50 (second compound 0.1 µM) was < 5.00 and the pIC50 (second compound 0.316 µM) was < 5.00. For the same compound, the pIC50 (second compound 1 µM) was < 5.00, the pIC50 (second compound 3.16 µM) was < 5.00 and the pIC50 (second compound 10 µM) was < 5.00. The viability, T/C [1] was 108%, the viability, T/C [2] was 95.7% and the viability, T/C [3] was 98.1%. The viability, T/C [4] was 96.8%, the viability, T/C [5] was 118% and the viability, T/C [6] was 93.4%. It also gave a viability, T/C [7] of 113%, a viability, T/C [8] of 112% and a viability, T/C [9] of 92%. For the same compound, the viability, T/C [10] was 100%, the viability, T/C [11] was 98.5% and the viability, T/C [12] was 101%. The viability, T/C [13] was 102%, the viability, T/C [14] was 110% and the viability, T/C [15] was 106%. For the same compound, the viability, T/C [16] was 97.1%, the viability, T/C [17] was 103% and the viability, T/C [18] was 90.9%. It also gave a viability, T/C [19] of 92.5%, a viability, T/C [20] of 99.7% and a viability, T/C [21] of 95.7%. For the same compound, the viability, T/C [22] was 97.6%, the viability, T/C [23] was 103% and the viability, T/C [24] was 96.5%. The viability, T/C [25] was 99.2%, the viability, T/C [26] was 105% and the viability, T/C [27] was 98.3%. It also gave a viability, T/C [28] of 98.6%, a viability, T/C [29] of 100% and a viability, T/C [30] of 108%. For the same compound, the viability, T/C [31] was 99.9%, the viability, T/C [32] was 100% and the viability, T/C [33] was 101%. For the same compound, the viability, T/C [34] was 99.8%, the viability, T/C [35] was 99.3% and the viability, T/C [36] was 98%.
